Experimental data from ChEMBL document CHEMBL1201862, “PubChem BioAssay data set” (2004).
The source made the active and inactive calls.

What was measured:
[1] = system: Streptococcus sp. 'group A'; test: Streptococcus pyogenes SK(-)GAS viability under kanamycin – luminescence, BacTiterGlo, confirmation, counter-screen for streptokinase expression inhibitor project, dose response (AID 1900); format: functional, organism-based
[2] = system: Vero; test: mammalian cell viability reduction – secondary assay, cytotoxicity control for West Nile virus antiviral project, dose response (AID 1650); format: functional; conditions: Chlorocebus sabaeus
[3] = target: T1, Streptokinase A (Streptococcus pyogenes serotype M1, UniProt P10520); test: viability-normalized secreted streptokinase activity reduction – plasminogen activation absorbance, OD405, dose response (AID 1914); format: functional, Streptococcus pyogenes M1 GAS;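 also: secreted streptokinase activity via plasminogen activation per viability signal from cell pellet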
T1 sequence (P10520 whole entry): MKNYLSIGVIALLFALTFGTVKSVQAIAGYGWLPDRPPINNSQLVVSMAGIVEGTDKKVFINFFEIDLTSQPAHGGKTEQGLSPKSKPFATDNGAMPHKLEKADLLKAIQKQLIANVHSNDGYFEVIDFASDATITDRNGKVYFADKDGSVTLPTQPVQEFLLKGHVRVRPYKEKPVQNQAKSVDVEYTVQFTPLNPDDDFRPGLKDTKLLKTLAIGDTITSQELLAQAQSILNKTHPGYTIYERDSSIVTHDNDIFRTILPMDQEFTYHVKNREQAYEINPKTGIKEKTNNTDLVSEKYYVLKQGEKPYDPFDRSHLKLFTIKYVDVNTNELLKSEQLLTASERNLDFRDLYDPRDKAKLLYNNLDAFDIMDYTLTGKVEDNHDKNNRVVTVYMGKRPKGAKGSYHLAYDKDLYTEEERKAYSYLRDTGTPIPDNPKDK

[4] = system: Streptococcus; test: GAS UMAA2166 growth inhibition – luminescence, BacTiterGlo, counter-screen for streptokinase expression inhibitor project, dose response (AID 1915); format: functional, organism-based;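 also: potency for reduction of bacterial viability or growth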
[5] = target: Glyceraldehyde-3-phosphate dehydrogenase (Homo sapiens, UniProt P04406)
[6] = target: T2, Bcl-2-related protein A1 (Mus musculus, UniProt Q07440); test: small-molecule antagonists of Bfl-1/BH3 interaction – biochemical, TR-FRET, mouse Bfl-1, confirmation (AID 621);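 also: TR-FRET binding of GST-Bfl-1 to FITC-labelled Bid peptide via terbium antibody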
T2 sequence (Q07440 whole entry): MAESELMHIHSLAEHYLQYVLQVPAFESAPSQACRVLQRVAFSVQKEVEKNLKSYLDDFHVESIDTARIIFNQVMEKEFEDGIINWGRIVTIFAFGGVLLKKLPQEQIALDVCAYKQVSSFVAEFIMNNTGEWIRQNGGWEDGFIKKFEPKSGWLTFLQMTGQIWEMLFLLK

[7] = target: T2, Bcl-2-related protein A1; test: Bfl-1 binding inhibitors, SAR follow-up, biochemical, fluorescence polarization (AID 1070)
[8] = target: T3, Replicative DNA helicase DnaB (Mycobacterium tuberculosis, UniProt P9WMR3); test: DnaB intein splicing inhibitors, dose response, biochemical, cell-free fluorescence (AID 449749); format: functional
T3 sequence (P9WMR3 whole entry): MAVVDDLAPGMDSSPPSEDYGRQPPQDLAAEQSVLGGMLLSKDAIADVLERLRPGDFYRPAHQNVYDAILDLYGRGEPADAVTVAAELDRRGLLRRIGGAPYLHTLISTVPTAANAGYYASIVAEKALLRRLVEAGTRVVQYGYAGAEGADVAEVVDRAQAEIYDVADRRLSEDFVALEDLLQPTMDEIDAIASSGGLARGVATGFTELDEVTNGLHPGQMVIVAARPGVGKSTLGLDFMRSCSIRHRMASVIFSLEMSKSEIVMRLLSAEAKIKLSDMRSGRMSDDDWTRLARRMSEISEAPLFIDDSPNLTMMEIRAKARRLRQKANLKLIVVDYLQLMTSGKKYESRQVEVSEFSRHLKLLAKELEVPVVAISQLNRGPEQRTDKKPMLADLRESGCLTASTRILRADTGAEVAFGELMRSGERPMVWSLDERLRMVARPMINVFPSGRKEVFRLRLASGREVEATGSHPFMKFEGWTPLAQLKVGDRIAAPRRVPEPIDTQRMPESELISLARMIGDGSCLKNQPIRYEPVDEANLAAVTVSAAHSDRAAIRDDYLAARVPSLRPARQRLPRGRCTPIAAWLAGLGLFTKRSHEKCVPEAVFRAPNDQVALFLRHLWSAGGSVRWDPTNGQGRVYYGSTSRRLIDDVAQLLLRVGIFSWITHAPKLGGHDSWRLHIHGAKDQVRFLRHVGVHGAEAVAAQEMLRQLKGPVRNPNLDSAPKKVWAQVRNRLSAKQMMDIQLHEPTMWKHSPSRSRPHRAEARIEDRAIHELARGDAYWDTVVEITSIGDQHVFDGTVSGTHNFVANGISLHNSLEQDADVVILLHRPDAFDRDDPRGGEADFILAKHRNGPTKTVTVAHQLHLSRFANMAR

[9] = target: T4, Protein RecA (Mycobacterium tuberculosis, UniProt P9WHJ3); test: Fluorescence Cell-Free Homogeneous Dose Retest to Identify Inhibitors of RecA-Intein Splicing Activity. [Related pubchem assays (depositor defined):AID2097, AID2223, AID489010, AID492950]; format: functional
T4 sequence (P9WHJ3 whole entry): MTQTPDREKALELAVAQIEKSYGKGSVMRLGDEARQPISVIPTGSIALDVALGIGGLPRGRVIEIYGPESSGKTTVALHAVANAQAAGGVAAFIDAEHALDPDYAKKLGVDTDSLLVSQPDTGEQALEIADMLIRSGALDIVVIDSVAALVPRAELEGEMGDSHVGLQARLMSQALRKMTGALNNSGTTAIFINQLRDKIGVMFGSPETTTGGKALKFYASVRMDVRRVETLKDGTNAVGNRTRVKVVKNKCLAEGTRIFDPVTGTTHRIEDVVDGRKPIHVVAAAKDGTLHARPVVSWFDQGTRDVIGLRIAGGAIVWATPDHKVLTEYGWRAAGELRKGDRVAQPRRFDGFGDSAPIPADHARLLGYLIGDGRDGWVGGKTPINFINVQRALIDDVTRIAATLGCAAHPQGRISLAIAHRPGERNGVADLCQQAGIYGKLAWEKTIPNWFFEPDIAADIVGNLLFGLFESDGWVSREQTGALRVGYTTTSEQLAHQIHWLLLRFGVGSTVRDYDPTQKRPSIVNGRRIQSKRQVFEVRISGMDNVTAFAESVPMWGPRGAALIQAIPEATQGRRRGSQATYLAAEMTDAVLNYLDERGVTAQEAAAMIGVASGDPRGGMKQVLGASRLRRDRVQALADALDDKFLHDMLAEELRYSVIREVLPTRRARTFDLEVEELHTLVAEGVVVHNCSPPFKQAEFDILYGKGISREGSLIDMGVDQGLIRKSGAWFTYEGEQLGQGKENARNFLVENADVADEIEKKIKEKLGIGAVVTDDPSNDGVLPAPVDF

[10] = target: Genome polyprotein (dengue virus type 2, UniProt P29990); test: flavivirus cap methylation enzyme inhibition – biochemical, confirmation dose response, primary screen (AID 588689); format: functional
[11] = target: T5, SUMO-activating enzyme (Homo sapiens, UniProt Q9UBT2); test: blockers of UBC9-mediated SUMO conjugation – biochemical, AlphaScreen, SUMOylation inhibitor project, confirmation (AID 2018); format: functional
[12] = target: T5, SUMO-activating enzyme; test: blockers of SAE1/SAE2–UBC9 SUMO transfer – biochemical, HTRF, uHTS, primary screen (AID 2006); format: protein-complex assay
[13] = target: Induced myeloid leukemia cell differentiation protein Mcl-1 (Homo sapiens, UniProt Q07820); test: blockers of MCL1 binding to BIM peptide – biochemical, fluorescence polarization, BIM-BH3 peptide, 1536-well, dose response (AID 2217)
[14] = target: Bcl-2-like protein 1 (Homo sapiens, UniProt Q07817); test: blockers of BCLXL peptide binding – biochemical, fluorescence polarization, 1536-well, selectivity assay for MCL1 inhibitor project, dose response (AID 2218)
[15] = target: T6, Neuropeptide Y receptor type 1 (Homo sapiens, UniProt P25929); format: functional;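 also: HEK293 cells with a CNG channel challenged with NPY then isoproterenol; potency as antagonist that reverses NPY suppression of cAMP signal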
T6 sequence (P25929 whole entry): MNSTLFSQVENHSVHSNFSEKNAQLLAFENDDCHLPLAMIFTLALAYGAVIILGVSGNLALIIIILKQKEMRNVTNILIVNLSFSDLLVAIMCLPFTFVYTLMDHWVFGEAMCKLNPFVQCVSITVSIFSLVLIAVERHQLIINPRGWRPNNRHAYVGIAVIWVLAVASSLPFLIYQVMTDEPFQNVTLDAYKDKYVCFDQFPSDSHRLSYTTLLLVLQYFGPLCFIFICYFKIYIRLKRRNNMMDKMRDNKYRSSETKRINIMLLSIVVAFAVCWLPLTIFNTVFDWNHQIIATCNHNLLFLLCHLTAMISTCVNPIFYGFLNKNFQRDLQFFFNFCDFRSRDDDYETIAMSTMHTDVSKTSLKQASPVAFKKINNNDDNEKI

[16] = target: T7, Neuropeptide Y receptor type 2 (Homo sapiens, UniProt P49146); format: functional, cell-based;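 also: HEK293 cells expressing the receptor and a CNG channel; stimulus was NPY near EC95 followed by isoproterenol to raise cAMP; antagonist potency measured as restoring cAMP signal that NPY suppresses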
T7 sequence (P49146 whole entry): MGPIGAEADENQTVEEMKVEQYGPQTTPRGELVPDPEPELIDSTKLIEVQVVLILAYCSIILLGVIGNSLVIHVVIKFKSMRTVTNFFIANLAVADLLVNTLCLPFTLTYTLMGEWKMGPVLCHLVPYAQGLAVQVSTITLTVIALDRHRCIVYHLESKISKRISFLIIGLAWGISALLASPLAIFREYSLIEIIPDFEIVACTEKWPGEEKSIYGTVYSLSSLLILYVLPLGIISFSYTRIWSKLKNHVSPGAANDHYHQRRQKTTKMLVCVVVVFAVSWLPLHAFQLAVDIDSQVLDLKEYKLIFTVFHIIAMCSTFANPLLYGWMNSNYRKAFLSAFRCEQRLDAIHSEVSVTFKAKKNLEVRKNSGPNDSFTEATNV

[17] = Luminescence Cell-Based Dose Response to Identify Activators of 5'UTR Stem-Loop Driven Prion Protein mRNA Translation in H4-C Neuroglioblastoma Cells. [Related pubchem assays: 1829 (Project Summary), 1814 (Primary HTS)]; format: functional
[18] = Luminescence Cell-Based Dose Response HTS to Identify Activators of Luciferase Translation or Activity in H4 […] Cells. [Related pubchem assays: 1829 (Project Summary), 1814 (Primary HTS)]; format: functional
[19] = system: H4; test: Luminescence Cell-Based Dose Response HTS to Identify Activators of 5'UTR Stem-Loop Driven Prion Protein mRNA Translation in H4 Neuroglioblastoma Cells. [Related pubchem assays: 1829 (Project Summary), 1814 (Primary HTS)]; format: functional; conditions: Homo sapiens
[20] = Luminescence Cell-Based Dose Response to Identify Activators of Luciferase Translation or Activity in H4-C Neuroglioblastoma Cells. [Related pubchem assays: 1829 (Project Summary), 1814 (Primary HTS)]; format: functional
[21] = Luminescence Cell-Based Dose Confirmation to Identify Activators of 5'UTR Stem-Loop Driven Alpha-Synuclein mRNA Translation in H4 Neuroglioblastoma Cells. [Related pubchem assays: 1829 (Project Summary), 1814 (Primary HTS)]; format: functional
[22] = Trypanosoma cruzi growth suppression in host cells – NIH3T3 host cells, beta-gal luminescence, confirmation (AID 2044); format: functional, cell-based;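 also: intracellular parasites grown in NIH/3T3 mouse fibroblasts as host cells; luminescent beta-galactosidase reporter signal from transgenic T. cruzi replicating inside host cells; inhibitors lower the luminescence signal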
[23] = NIH3T3 cell viability loss – ATP luminescence, mouse fibroblasts, counter-screen, dose response (AID 2010); format: functional, cell-based;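 also: cells exposed to compound for about 90 hours before reading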
[24] = cells
[25] = target: T8, Estrogen receptor beta (Homo sapiens, UniProt Q92731);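 also: recombinant ER-beta bound to coactivator SRC1 peptide in presence of estradiol agonist; inhibitors block coactivator peptide binding and lower the FRET signal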
[26] = target: T8, Estrogen receptor beta; test: blockers of SRC-3 recruitment to ERβ – biochemical, ELISA, streptavidin-HRP readout, orthogonal assay, confirmation (AID 1060)

Induced myeloid leukemia cell differentiation protein Mcl-1, sequence (Q07820 whole entry): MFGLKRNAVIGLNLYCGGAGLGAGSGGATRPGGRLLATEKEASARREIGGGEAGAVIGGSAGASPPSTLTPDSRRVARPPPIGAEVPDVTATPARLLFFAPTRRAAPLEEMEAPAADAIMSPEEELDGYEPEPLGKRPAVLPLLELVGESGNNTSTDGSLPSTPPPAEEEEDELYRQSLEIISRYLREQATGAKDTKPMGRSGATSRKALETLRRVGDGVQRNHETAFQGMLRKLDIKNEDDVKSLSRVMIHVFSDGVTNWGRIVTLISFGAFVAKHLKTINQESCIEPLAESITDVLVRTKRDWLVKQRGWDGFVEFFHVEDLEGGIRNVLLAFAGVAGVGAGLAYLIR
Bcl-2-like protein 1, sequence (Q07817 whole entry): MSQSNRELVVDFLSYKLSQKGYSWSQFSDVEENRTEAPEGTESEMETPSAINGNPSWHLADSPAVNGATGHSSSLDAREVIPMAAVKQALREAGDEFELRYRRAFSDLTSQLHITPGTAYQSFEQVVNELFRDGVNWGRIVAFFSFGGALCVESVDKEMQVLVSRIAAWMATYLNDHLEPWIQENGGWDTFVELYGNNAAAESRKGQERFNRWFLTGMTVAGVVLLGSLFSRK
T8 sequence (Q92731 whole entry): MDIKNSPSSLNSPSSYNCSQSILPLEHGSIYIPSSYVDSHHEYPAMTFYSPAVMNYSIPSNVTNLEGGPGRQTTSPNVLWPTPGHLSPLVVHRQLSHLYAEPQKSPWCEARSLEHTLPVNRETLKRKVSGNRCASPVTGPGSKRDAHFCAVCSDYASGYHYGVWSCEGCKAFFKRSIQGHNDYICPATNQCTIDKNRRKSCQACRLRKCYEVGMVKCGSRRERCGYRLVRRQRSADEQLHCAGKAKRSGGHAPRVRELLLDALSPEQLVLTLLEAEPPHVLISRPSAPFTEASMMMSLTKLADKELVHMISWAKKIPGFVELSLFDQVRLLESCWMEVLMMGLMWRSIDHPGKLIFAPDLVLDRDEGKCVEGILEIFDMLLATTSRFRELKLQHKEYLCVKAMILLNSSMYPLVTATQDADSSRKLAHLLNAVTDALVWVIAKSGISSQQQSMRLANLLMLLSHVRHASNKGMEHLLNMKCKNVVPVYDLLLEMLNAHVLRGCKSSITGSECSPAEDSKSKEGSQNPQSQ
T5 sequence (Q9UBE0 whole entry): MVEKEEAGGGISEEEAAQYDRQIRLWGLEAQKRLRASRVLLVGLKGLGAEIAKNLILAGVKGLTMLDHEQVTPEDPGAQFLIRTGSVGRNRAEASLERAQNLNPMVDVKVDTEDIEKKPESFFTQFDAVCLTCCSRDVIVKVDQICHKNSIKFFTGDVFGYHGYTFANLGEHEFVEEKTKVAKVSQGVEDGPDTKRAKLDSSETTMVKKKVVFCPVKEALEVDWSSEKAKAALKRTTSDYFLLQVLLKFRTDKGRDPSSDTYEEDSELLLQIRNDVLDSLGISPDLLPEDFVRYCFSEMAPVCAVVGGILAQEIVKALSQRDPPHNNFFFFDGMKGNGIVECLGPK
T5 sequence (Q9UBT2 whole entry): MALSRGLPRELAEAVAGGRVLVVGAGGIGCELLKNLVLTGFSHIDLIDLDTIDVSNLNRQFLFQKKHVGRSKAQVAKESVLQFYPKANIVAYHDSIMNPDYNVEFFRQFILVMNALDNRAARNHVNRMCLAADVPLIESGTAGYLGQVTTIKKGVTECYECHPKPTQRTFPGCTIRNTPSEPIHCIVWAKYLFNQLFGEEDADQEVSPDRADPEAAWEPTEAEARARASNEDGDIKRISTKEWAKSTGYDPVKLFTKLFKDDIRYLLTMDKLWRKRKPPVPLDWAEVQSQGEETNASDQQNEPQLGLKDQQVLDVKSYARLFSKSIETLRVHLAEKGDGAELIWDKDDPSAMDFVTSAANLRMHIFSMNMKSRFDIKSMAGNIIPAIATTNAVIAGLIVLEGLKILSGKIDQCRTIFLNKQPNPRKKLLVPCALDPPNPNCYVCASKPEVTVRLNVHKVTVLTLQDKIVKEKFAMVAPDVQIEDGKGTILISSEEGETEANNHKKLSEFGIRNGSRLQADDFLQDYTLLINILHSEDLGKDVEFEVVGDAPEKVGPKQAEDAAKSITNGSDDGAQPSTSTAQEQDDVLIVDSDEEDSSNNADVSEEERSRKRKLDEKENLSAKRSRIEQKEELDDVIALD
Glyceraldehyde-3-phosphate dehydrogenase, sequence (P04406 whole entry): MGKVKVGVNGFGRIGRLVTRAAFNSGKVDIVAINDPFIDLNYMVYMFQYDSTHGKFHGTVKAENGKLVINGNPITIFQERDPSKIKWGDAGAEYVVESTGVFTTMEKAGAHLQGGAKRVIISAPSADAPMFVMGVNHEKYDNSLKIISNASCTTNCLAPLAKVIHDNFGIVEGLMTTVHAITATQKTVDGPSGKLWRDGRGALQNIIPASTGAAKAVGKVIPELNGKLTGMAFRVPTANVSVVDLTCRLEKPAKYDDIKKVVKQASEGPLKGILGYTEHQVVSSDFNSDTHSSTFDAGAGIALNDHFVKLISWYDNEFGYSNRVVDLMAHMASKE
Genome polyprotein, sequence (P29990 2492-3391 limits assumed): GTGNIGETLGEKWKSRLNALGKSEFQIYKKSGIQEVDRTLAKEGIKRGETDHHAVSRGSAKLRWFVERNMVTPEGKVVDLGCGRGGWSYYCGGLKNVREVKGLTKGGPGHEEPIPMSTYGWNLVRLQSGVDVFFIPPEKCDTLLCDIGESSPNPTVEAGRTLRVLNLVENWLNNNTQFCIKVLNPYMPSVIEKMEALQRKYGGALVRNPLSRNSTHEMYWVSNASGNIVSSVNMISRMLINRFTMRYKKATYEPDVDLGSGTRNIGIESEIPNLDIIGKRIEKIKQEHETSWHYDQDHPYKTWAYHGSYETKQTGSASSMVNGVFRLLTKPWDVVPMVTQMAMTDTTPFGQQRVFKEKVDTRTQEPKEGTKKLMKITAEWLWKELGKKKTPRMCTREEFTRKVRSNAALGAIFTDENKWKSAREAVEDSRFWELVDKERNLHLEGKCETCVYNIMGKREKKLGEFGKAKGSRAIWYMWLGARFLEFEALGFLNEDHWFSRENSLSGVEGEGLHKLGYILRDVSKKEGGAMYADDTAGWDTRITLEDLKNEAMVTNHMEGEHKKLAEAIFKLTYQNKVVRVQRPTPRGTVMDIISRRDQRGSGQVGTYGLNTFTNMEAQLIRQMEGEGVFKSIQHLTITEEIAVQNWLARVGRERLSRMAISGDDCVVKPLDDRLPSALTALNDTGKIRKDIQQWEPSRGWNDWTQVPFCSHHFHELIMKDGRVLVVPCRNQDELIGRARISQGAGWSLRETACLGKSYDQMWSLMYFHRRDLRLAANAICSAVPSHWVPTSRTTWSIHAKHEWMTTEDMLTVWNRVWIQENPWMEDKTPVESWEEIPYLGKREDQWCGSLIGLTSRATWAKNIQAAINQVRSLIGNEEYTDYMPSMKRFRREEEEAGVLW

Cc1cc(C)c(C(=O)Nc2ccc(Br)c(C(F)(F)F)c2)c(C)c1
EC50 [1]: 2.41 µM (active) | CC50 [2]: 47.4 µM (active) | EC50 [3]: 3.29 µM (active) | EC50 [4]: 3.73 µM (active)

O=C1C(Cl)=C(N2CCOCC2)C(=O)N1c1cccc(Cl)c1
IC50 [5]: > 10 µM (inconclusive) | IC50 [6]: 6.37 µM (active) | IC50 [7]: 8.47 µM (active) | AC50 [8]: 4.14 µM (active) | EC50 [9]: 1.46 µM (active) | IC50 [10]: 13.6 µM (active)

O=C1NC(=O)N(Cc2ccco2)C(=O)/C1=C/c1ccc(-c2cccc([N+](=O)[O-])c2)o1
IC50 [11]: 6.08 µM (active) | IC50 [12]: 22.4 µM (active) | IC50 [13]: 9.6 µM (active) | IC50 [14]: 17.6 µM (not active)

Clc1ccc(OCCSc2nnnn2C2CCCCC2)cc1
IC50 [15]: 9.04 µM (active) | IC50 [16]: 14.2 µM (not active)

COc1cccc(-c2nc(O)c3c4c(sc3n2)CCCCC4)c1
EC50 [17]: 0.37 µM (active) | EC50 [18]: < 0.1 µM (active) | EC50 [19]: 11.6 µM (active) | EC50 [20]: 1.36 µM (active) | EC50 [21]: 0.303 µM (active)

N#Cc1ccc(-c2cccnc2)nc1SCc1ccc(Cl)c(Cl)c1
IC50 [15]: 5.69 µM (active) | IC50 [16]: 5.19 µM (active)

Cc1ccccc1OCCNc1cc(N2CCN(CCO)CC2)ccc1[N+](=O)[O-]
CC50 [2]: 19.4 µM (active)

COc1cccc(CNC(=O)CCC2CCCN(C/C=C/c3ccccc3OC)C2)c1 (stereo not given)
EC50 [22]: < 0.1 µM (active) | EC50 [23]: > 60 µM (not active) | EC50 [24]: 0.05 µM (active)

CCOC(=O)C1=C(C)NC(=O)NC1c1ccco1 (stereo not given)
IC50 [25]: 9.28 µM (active) | IC50 [26]: < 0.023 µM (not active)

O=C(CNc1cccc2ccccc12)N/N=C/c1ccc(C(=O)O)cc1
IC50 [13]: 26.6 µM (not active) | IC50 [14]: > 109 µM (not active)

Cc1ccc(-c2c(C)s/c(=N\C(=O)c3ccco3)n2C)cc1
EC50 [17]: 0.469 µM (active) | EC50 [18]: < 0.1 µM (active) | EC50 [20]: 0.354 µM (active) | EC50 [21]: > 12 µM (not active)
